According to patent publication US7989633B2, “4-Chromenonyl-1,4-dihydropyridines and their use” (Bayer Schering Pharma Aktiengesellschaft, priority 2005, dated 2011):

Target: T1, human mineralocorticoid receptor (MR) (Homo sapiens, UniProt P08235)
T1 construct: expressed in transfected cells
T1 sequence (P08235 734-984 limits assumed): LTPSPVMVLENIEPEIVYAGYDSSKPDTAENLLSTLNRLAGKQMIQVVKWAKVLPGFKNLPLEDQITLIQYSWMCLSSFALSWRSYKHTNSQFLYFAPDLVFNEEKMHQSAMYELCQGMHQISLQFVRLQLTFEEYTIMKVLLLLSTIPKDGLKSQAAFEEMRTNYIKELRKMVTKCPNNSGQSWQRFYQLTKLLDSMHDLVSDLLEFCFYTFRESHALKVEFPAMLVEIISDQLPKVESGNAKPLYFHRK
Test: Cellular in vitro assay to determine the inhibitory MR activity (GAL4-MR chimera luciferase reporter in CHO K1 cells)
Assay type: cell-based
Details: GAL4-MR ligand-binding domain chimera in CHO K1 cells, agonist aldosterone
Excerpt: 1. Cellular In Vitro Assay to Determine the Inhibitory MR Activity and MR Selectivity Compared with Other Steroid Hormone Receptors
Antagonists of the human mineralocorticoid receptor (MR) are identified, and the activity of the compounds described herein is quantified with the aid of a recombinant cell line. The cell is originally derived from a hamster ovary epithelial cell (Chinese Hamster Ovary, CHO K1, ATCC: American Type Culture Collection, VA 20108, USA).
An established chimera system in which the ligand-binding domains of human steroid hormone receptors are fused to the DNA-binding domain of the yeast transcription factor GAL4 is used in this CHO K1 cell line. The GAL4-steroid hormone receptor chimeras produced in this way are cotransfected and stably expressed with a reporter construct in the CHO cells.
To generate the GAL4-steroid hormone receptor chimeras, the GAL4 DNA binding domain (amino acids 1-147) from the vector pFC2-dbd (from Stratagene) is cloned with the PCR-amplified ligand-binding domains of the mineralocorticoid receptor (MR, amino acids 734-985), of the glucocorticoid receptor (GR, amino acids 443-777), of the progesterone receptor (PR, amino acids 680-933) and of the androgen receptor (AR, amino acids 667-919) into the vector pIRES2 (from Clontech). The reporter construct, which comprises five copies of the GAL4 binding site upstream of a thymidine kinase promoter, leads to expression of firefly-luciferase (Photinus pyralis) after activation and binding of the GAL4-steroid hormone receptor chimeras by the respective specific agonists aldosterone (MR), dexamethasone (GR), progesterone (PR) and dihydrotestosterone (AR).
The MR, GR, PR and AR cells are plated out in medium (Optimem, 2.5% FCS, 2 mM glutamine, 10 mM HEPES) in 96- (or 384- or 1536-) well microtiter plates on the day before the assay and are kept in a cell incubator (96% humidity, 5% v/v CO2, 37° C.). On the day of the assay, the substances to be tested are taken up in the abovementioned medium and added to the cells. About 10 to 30 minutes after addition of the test substances, the respective specific agonists of the steroid hormone receptors are added. After a further incubation time of 5 to 6 hours, the luciferase activity is measured with the aid of a video camera. The measured relative light units as a function of the substance concentration result in a sigmoidal stimulation curve. The IC50 values are calculated with the aid of the GraphPad PRISM computer program (Version 3.02).

Row | Structure (SMILES) | IC50 [nM]
1 | CCOC(=O)C1=C(C)NC(C)=C(C(C)=O)C1c1cccc2c(=O)cc(C)oc12 (racemic) [Example 1 (Racemate), Ethyl 5-acetyl-2,6-dimethyl-4-(2-methyl-4-oxo-4H-chromen-8-yl)-1,4-dihydropyridine-3-carboxylate] | 75
2 | CCOC(=O)C1=C(C)NC(C)=C(C(C)=O)C1c1cccc2c(=O)cc(C)oc12 (single isomer, unassigned) [Example 1 (Enantiomer 2), Ethyl 5-acetyl-2,6-dimethyl-4-(2-methyl-4-oxo-4H-chromen-8-yl)-1,4-dihydropyridine-3-carboxylate] | 43
3 | CC(=O)C1=C(C)NC(C)=C(C(=O)OC2CCCC2)C1c1cccc2c(=O)cc(C)oc12 (stereo not shown) [Example 2, Cyclopentyl 5-acetyl-2,6-dimethyl-4-(2-methyl-4-oxo-4H-chromen-8-yl)-1,4-dihydropyridine-3-carboxylate] | 22
4 | CC(=O)C1=C(C)NC(C)=C(C(=O)OC(C)C)C1c1cccc2c(=O)cc(C)oc12 (stereo not shown) [Example 3, Isopropyl 5-acetyl-2,6-dimethyl-4-(2-methyl-4-oxo-4H-chromen-8-yl)-1,4-dihydropyridine-3-carboxylate] | 39

Further lines, results first:

Row | IC50 [nM] | Structure (SMILES)
5 | 235 | COC(=O)C1=C(C)NC(C)=C(C(C)=O)C1c1cccc2c(=O)cc(C)oc12 (stereo not shown) [Example 4, Methyl 5-acetyl-2,6-dimethyl-4-(2-methyl-4-oxo-4H-chromen-8-yl)-1,4-dihydropyridine-3-carboxylate]
6 | 19 | CC1=C(C(=O)OC(C)C)C(c2cccc3c(=O)cc(C)oc23)C(C(=O)C(F)(F)F)=C(C)N1 (stereo not shown) [Example 8, Isopropyl 2,6-dimethyl-4-(2-methyl-4-oxo-4H-chromen-8-yl)-5-(trifluoroacetyl)-1,4-dihydro-pyridine-3-carboxylate]
7 | 74 | CCOC(=O)C1=C(C)NC(C)=C(C(C)=O)C1c1ccc(F)c2c(=O)cc(C)oc12 (stereo not shown) [Example 11, Ethyl 5-acetyl-2,6-dimethyl-4-(5-fluoro-2-methyl-4-oxo-4H-chromen-8-yl)-1,4-dihydropyridine-3-carboxylate]
8 | 104 | CCOC(=O)C1=C(C)NC(C)=C(C(=O)c2ccccc2)C1c1cccc2c(=O)cc(C)oc12 (stereo not shown) [Example 14, Ethyl 5-benzoyl-2,6-dimethyl-4-(2-methyl-4-oxo-4H-chromen-8-yl)-1,4-dihydropyridine-3-carboxylate]
9 | 18 | COC(=O)C1=C(C)NC(C)=C(C(=O)CC2CCC2)C1c1cccc2c(=O)cc(C)oc12 (stereo not shown) [Example 34, Methyl 5-(cyclobutylacetyl)-2,6-dimethyl-4-(2-methyl-4-oxo-4H-chromen-8-yl)-1,4-dihydro-pyridine-3-carboxylate]
10 | 27 | COC(=O)C1=C(C)NC(C)=C(C(=O)c2ccc(C)cc2)C1c1cccc2c(=O)cc(C)oc12 (stereo not shown) [Example 37, Methyl 2,6-dimethyl-5-(4-methylbenzoyl)-4-(2-methyl-4-oxo-4H-chromen-8-yl)-1,4-dihydro-pyridine-3-carboxylate]
